Experimental data taken from publication PMC5084075 (ACS Central Science, 2016).

System: HEK293
Experiment: cells
Parameters: cytotoxicity counter-screen on HEK293 cells
Conditions: Homo sapiens, cytotoxicity
Procedure: (§1) To confirm the promise of the two starting points OSM-S-5 and -6, they were evaluated against 3D7 (drug-sensitive) and K1 (chloroquine resistant) strains of Plasmodium falciparum in a whole cell assay and against HEK-293 cells as a cytotoxicity marker (Table SB1, Biological Protocols; tables with the prefix “SB” may be found in the Supporting Information). Biological data may be browsed in a static data set taken as a snapshot for this paper (Data Sets S1 (Excel), S2 (SDF)), online in a database constructed through periodic batch uploads,[68] or in a “living database” to which may be added future data;[69] the latter may be visualized in a web browser[70] using an open source system that was recently deployed in the Wikipedia Chemical Structure Explorer,[71] or the data may be downloaded and visualized offline with proprietary (Figure S4)[72] or open source (Figure S5)[73] tools). The evaluation was performed in three different institutions using different assays and widely employed controls; controls are important to assess reproducibility and interassay variability[74] but also to minimize possible bias in evaluating compounds where there are pre-existing data from other researchers already in the public domain (Figure S6).[75]

Question: For `Cc1cc(/C=C2\S/C(=N\c3ccccc3)NC2=O)c(C)[nH]1` [OSM-S-108], which inhibition at 40 µM is on record?
Answer: 44%

Question: For `Cc1cc(/C=C2\S/C(=N\c3cccc(O)c3)NC2=O)c(C)n1-c1ccc([N+](=O)[O-])cc1` [OSM-S-110], which inhibition at 40 µM is on record?
Answer: 26%

Question: `COc1ccc(-n2c(C)cc(/C=C3\S/C(=N\c4cccc(O)c4)NC3=O)c2C)cc1` [OSM-S-112] was tested. Which inhibition at 40 µM did it give?
Answer: 38%

Question: `Cc1cc(/C=C2\S/C(=N\c3cccc(O)c3)NC2=O)c(C)n1-c1ccccc1` [OSM-S-114] was tested. Which inhibition at 40 µM did it give?
Answer: 42%

Question: Which inhibition at 40 µM does the source give for `Cc1cc(/C=C2\S/C(=N\c3ccc(O)cc3)NC2=O)c(C)n1-c1ccccc1` [OSM-S-115] here?
Answer: 35%

System: T1, Plasmodium falciparum Pfal (K1)
T1 construct: K1
Experiment: microbe, parasite or virus in culture
Parameters: species or system erythrocytes; P. falciparum asexual blood-stage whole-cell growth inhibition, IC50
Conditions: K1, Erythrocyte, lab named in column head, read-out: Pfal (K1) IC50 (Batra)
Procedure: as §1

Question: Which IC50 does the source give for `Cc1cc(/C=C2\SC(=Nc3ccccc3)N(c3ccccc3)C2=O)c(C)n1-c1cccc(F)c1` [OSM-L-1] here?
Answer: > 5000 nM

Same assay, conditions: K1, Erythrocyte, lab named in column head, read-out: Pfal (K1) IC50 (Guy)

Question: With `Cc1cc(/C=C2\SC(=Nc3ccccc3)NC2=O)c(C)n1-c1ccc(S(N)(=O)=O)cc1` [OSM-A-1] as the compound, how does the IC50 read?
Answer: 4380 nM

Same assay, conditions: K1, Erythrocyte, read-out: K1 / IC50nM

Question: `C[C@@H]1CC[C@H]2[C@@H](C)C(=O)O[C@@H]3O[C@@]4(C)CC[C@@H]1[C@]32OO4` [Artemisinin] was tested. Which IC50 did it give?
Answer: 0.61 nM

System: T2, Plasmodium falciparum Pfal (3D7)
T2 construct: 3D7
Experiment: microbe, parasite or virus in culture
Parameters: species or system erythrocytes; P. falciparum asexual blood-stage whole-cell growth inhibition, IC50
Conditions: 3D7, Erythrocyte, lab named in column head, read-out: Pfal IC50 (Batra)
Procedure: as §1

Question: Which IC50 does the source give for `Cc1cc(/C=C2\SC(=Nc3ccccc3)N(c3ccccc3)C2=O)c(C)n1-c1cccc(F)c1` [OSM-L-1] here?
Answer: 3.2 µM

Same assay, conditions: 3D7, Erythrocyte, lab named in column head, read-out: Pfal IC50 (Guy)

Question: `Cc1cc(/C=C2\SC(=Nc3ccccc3)NC2=O)c(C)n1-c1ccc(S(N)(=O)=O)cc1` [OSM-A-1] was tested. Which IC50 did it give?
Answer: 3.05 µM

System: T3, Plasmodium falciparum K1 (chloroquine resistant)
T3 construct: K1
Experiment: microbe, parasite or virus in culture
Parameters: species or system P. falciparum blood stage culture; whole-cell asexual blood stage P. falciparum growth inhibition
Conditions: Avery assay, read-out: K1 / IC50nM
Procedure: as §1

Question: For `CCN(CC)CCCC(C)Nc1ccnc2cc(Cl)ccc12` (stereo not drawn) [Chloroquine], which IC50 is on record?
Answer: 266 nM

Question: How did the IC50 turn out when `COc1cc(C)c2c(Oc3cccc(C(F)(F)F)c3)c(OC)cc(NC(C)CCCN)c2n1` (stereo not drawn) [Tafenoquine] was run?
Answer: 451 nM

Same assay, conditions: Batra assay, read-out: Pfal (K1) IC50 (Batra)

Question: With `Cc1cc(/C=C2\S/C(=N\c3ccccc3)N(c3ccccc3)C2=O)c(C)n1-c1cccc(F)c1` [OSM-L-1] as the compound, how does the IC50 read?
Answer: > 5000 nM

Same assay, conditions: Guy assay, read-out: Pfal (K1) IC50 (Guy)

Question: Which IC50 does the source give for `Cc1cc(/C=C2\SC(=Nc3ccccc3)NC2=O)c(C)n1-c1ccc(S(N)(=O)=O)cc1` [OSM-A-1] here?
Answer: 4380 nM

Question: How did the IC50 turn out when `Cc1cc(/C=C2\S/C(=N\c3ccccc3)NC2=O)c(C)n1-c1ccc(C#N)cc1` [OSM-A-2] was run?
Answer: 1830 nM

Question: How did the IC50 turn out when `COc1cccc(-n2c(C)cc(/C=C3\S/C(=N\c4ccccc4)NC3=O)c2C)c1` [OSM-A-3] was run?
Answer: 140 nM

Question: With `Cc1cc(/C=C2\S/C(=N\c3ccccc3)NC2=O)c(C)n1-c1ccc(I)cc1` [OSM-A-4] as the compound, how does the IC50 read?
Answer: 3160 nM

System: T4, Plasmodium falciparum 3D7
T4 construct: 3D7
Experiment: microbe, parasite or virus in culture
Parameters: species or system P. falciparum blood stage culture; whole-cell asexual blood stage P. falciparum growth inhibition
Conditions: Avery assay, read-out: 3D7 / IC50nM
Procedure: as §1

Question: For `C[C@@H]1CC[C@H]2[C@@H](C)C(=O)O[C@@H]3O[C@@]4(C)CC[C@@H]1[C@]32OO4` [Artemisinin], which IC50 is on record?
Answer: 6 nM

Question: With `CCN(CC)CCCC(C)Nc1ccnc2cc(Cl)ccc12` (stereo not drawn) [Chloroquine] as the compound, how does the IC50 read?
Answer: 18.7 nM

Question: With `COc1cc(C)c2c(Oc3cccc(C(F)(F)F)c3)c(OC)cc(NC(C)CCCN)c2n1` (stereo not drawn) [Tafenoquine] as the compound, how does the IC50 read?
Answer: 451 nM

System: Plasmodium falciparum Pfal (strain not named in column head)
Experiment: microbe, parasite or virus in culture
Parameters: species or system P. falciparum blood stage culture; whole-cell asexual blood stage P. falciparum growth inhibition
Conditions: Batra assay
Procedure: as §1

Question: Which IC50 does the source give for `Cc1cc(/C=C2\S/C(=N\c3ccccc3)N(c3ccccc3)C2=O)c(C)n1-c1cccc(F)c1` [OSM-L-1] here?
Answer: 3.2 µM

Same assay, conditions: Dundee assay

Question: Which IC50 does the source give for `Cc1cc(S(=O)(=O)N(C)CC(N)=O)c(C)n1-c1ccc(F)cc1` [OSM-E-1] here?
Answer: > 50 µM

Question: With `Cc1cc(S(=O)(=O)NCC(N)=O)c(C)n1-c1ccc(F)cc1` [OSM-E-2] as the compound, how does the IC50 read?
Answer: > 50 µM

Question: How did the IC50 turn out when `Cc1c(S(=O)(=O)N(C)CC(N)=O)c(S(=O)(=O)N(C)CC(N)=O)c(C)n1-c1ccc(F)cc1` [OSM-E-3] was run?
Answer: > 50 µM

Question: How did the IC50 turn out when `O=C(CBr)OCc1cn(-c2ccc(F)cc2)nn1` [OSM-E-4] was run?
Answer: > 50 µM

Question: With `CCOC(=O)COCc1cn(-c2ccc(F)cc2)nn1` [OSM-E-5] as the compound, how does the IC50 read?
Answer: > 50 µM

Question: Which IC50 does the source give for `COC(=O)COCc1cn(-c2ccc(F)cc2)nn1` [OSM-E-6] here?
Answer: > 50 µM

Question: Which IC50 does the source give for `O=C(COCc1cn(-c2ccc(F)cc2)nn1)OCc1cn(-c2ccc(F)cc2)nn1` [OSM-E-7] here?
Answer: > 50 µM

Question: With `NC(=O)COCc1cn(-c2ccc(F)cc2)nn1` [OSM-E-8] as the compound, how does the IC50 read?
Answer: > 50 µM

Same assay, conditions: Guy assay

Question: `Cc1cc(/C=C2\SC(=Nc3ccccc3)NC2=O)c(C)n1-c1ccc(S(N)(=O)=O)cc1` [OSM-A-1] was tested. Which IC50 did it give?
Answer: 3.05 µM

Question: How did the IC50 turn out when `Cc1cc(/C=C2\S/C(=N\c3ccccc3)NC2=O)c(C)n1-c1ccc(C#N)cc1` [OSM-A-2] was run?
Answer: 0.574 µM

Question: `COc1cccc(-n2c(C)cc(/C=C3\S/C(=N\c4ccccc4)NC3=O)c2C)c1` [OSM-A-3] was tested. Which IC50 did it give?
Answer: 0.098 µM

Question: `Cc1cc(/C=C2\S/C(=N\c3ccccc3)NC2=O)c(C)n1-c1ccc(I)cc1` [OSM-A-4] was tested. Which IC50 did it give?
Answer: 1.75 µM
